# Columns and labels:
# [1] = moisture, heat, aerial oxygen, light; cited from earlier work
# [2] = tested on: IBS-D, IBS-C and IBS-A patients; test: Example 2: 12-week randomized, double-blind, dose-ranging, placebo-controlled fixed-dose asimadoline study in IBS; format: in vivo, human; conditions: for urgency: all three months; for improvement over placebo in percent number of months with adequate relief / percent number of months with adequate relief of IBS pain or discomfort: all IBS subjects with moderate or severe pain
# Procedure: Diarrhea-predominant (IBS-D), constipation-predominant (IBS-C), and alternating IBS (IBS-A) patients were recruited from 120 sites in the United States. Patients underwent a two week screening period to ensure adequate symptoms and compliance with the interactive voice response system (IVRS) data collection system, followed by twelve weeks of treatment and a four week follow-up period. Patients received identical appearing placebo, 0.15 mg, 0.5 mg or 1.0 mg asimadoline tablets b.i.d. for the 12 week treatment period. During screening, treatment and follow-up patients entered data every day on the IVRS.
# The primary endpoint was the number of months a patient was a responder for adequate relief, where the primary measure was the question, “In the past 7 days have you had adequate relief of your IBS pain or discomfort?” This measure was asked once every 7 days and a monthly responder replied “yes” at least 3 weeks per month. Numerous secondary endpoints, abdominal pain or discomfort, stool frequency, urgency, bloating, stool consistency, adequate relief of IBS symptoms and straining were also collected. Additionally, adverse clinical events, laboratory test data and electrocardiograms (ECGs) were collected.
# Of the 596 subjects who were randomized, 344 reported baseline pain scores of 2.0 or higher. The pain score was a self reported score on a scale of 0-3, where 0=no pain, 1=mild pain, 2=moderate pain and 3=severe pain Subjects having scores of 2.0 or higher were categorized as having moderate or severe pain. Of the 344 moderate or severe pain subjects, 104 were classified as having IBS-D, 114 IBS-A and 126 IBS-C.
# [3] = tested on: gastric and colon distention; conditions: animal models; cited from earlier work
# [4] = cited from earlier work
# [5] = cited from earlier work; remark: listed apart in the source
# patients with IBS = test: Example 1: randomized, double-blind, placebo controlled 4-week on-demand asimadoline study in participants with IBS; conditions: for Δ Pain intensity (mean ± SE): VAS, 2 hours after first dose
# mu opiate receptor = mu opiate receptor (Homo sapiens, UniProt P35372); test: selectivity: IC50 at mu opiate receptor relative to kappa; format: binding; conditions: ratio kappa:mu:delta
# delta opiate receptor = delta opiate receptor (Homo sapiens, UniProt P41143); test: selectivity: IC50 at delta opiate receptor relative to kappa; format: binding; conditions: ratio kappa:mu:delta
# kappa-opiate receptor = kappa-opiate receptor (Homo sapiens, UniProt P41145); conditions: read-out: affinity for the kappa-opiate receptor, IC50; cited from earlier work
# IBS patients = conditions: Bardhan et al., Aliment Pharmacol Ther 2000; 14:23-34; cited from earlier work
# delta opiate receptor, sequence (P41143 whole entry): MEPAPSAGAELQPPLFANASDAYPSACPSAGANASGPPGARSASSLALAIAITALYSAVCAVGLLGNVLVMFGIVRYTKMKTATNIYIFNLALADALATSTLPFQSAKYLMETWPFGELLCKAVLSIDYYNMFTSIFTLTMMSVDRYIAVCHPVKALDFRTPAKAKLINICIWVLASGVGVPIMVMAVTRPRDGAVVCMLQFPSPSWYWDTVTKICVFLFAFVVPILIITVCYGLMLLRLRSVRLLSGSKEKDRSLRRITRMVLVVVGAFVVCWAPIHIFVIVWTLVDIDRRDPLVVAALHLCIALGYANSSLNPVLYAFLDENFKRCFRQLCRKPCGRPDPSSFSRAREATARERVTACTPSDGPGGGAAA
# kappa-opiate receptor, sequence (P41145 whole entry): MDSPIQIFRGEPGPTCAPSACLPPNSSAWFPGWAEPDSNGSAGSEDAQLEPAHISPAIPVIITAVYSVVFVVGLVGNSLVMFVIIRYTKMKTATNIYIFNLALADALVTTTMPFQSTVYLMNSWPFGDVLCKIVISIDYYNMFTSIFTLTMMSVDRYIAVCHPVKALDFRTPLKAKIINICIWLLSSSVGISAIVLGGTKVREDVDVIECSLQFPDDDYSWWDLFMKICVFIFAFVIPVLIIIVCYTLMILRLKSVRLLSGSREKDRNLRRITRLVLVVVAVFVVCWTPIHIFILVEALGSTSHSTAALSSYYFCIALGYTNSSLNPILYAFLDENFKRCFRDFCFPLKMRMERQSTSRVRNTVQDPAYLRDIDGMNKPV
# mu opiate receptor, sequence (P35372 whole entry): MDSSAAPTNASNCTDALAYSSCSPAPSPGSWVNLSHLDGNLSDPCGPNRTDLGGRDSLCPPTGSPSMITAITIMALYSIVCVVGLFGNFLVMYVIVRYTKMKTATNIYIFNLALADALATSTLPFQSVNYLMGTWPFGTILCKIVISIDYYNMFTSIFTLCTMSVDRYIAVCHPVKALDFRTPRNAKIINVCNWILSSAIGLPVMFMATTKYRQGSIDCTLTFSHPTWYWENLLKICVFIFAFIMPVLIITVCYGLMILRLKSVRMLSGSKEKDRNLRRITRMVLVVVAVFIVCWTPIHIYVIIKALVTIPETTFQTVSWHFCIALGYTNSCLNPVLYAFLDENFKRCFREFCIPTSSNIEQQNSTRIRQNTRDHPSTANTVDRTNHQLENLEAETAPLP
structure (smiles),measurement,setting,value
"CN(C(=O)C(c1ccccc1)c1ccccc1)[C@H](CN1CC[C@H](O)C1)c1ccccc1.Cl [Asimadoline, N-[(1S)-2-[(3S)-3-hydroxypyrrolidin-1-yl]-1-phenylethyl]-N-methyl-2,2-diphenylacetamide, hydrochloride]",stability of the substance,[1],"slightly sensitive to moisture, but stable against heat, aerial oxygen and light"
same,Adverse events: Abdominal pain,[2]; 0.15 mg b.i.d.,5.4%
same,Adverse events: Constipation,[2]; 0.15 mg b.i.d.,12.8%
same,Adverse events: Diarrhea,[2]; 0.15 mg b.i.d.,13.4%
same,Adverse events: Dizziness,[2]; 0.15 mg b.i.d.,2.7%
same,Adverse events: Headache,[2]; 0.15 mg b.i.d.,9.4%
same,Adverse events: Nausea,[2]; 0.15 mg b.i.d.,5.4%
same,Adverse events: Sinusitis,[2]; 0.15 mg b.i.d.,4.7%
same,Adverse events: Abdominal pain,[2]; 0.5 mg b.i.d.,4.6%
same,Adverse events: Constipation,[2]; 0.5 mg b.i.d.,10.5%
same,Adverse events: Diarrhea,[2]; 0.5 mg b.i.d.,5.9%
same,Adverse events: Dizziness,[2]; 0.5 mg b.i.d.,1.3%
same,Adverse events: Headache,[2]; 0.5 mg b.i.d.,4.6%
same,Adverse events: Nausea,[2]; 0.5 mg b.i.d.,8.6%
same,Adverse events: Sinusitis,[2]; 0.5 mg b.i.d.,2.6%
same,Adverse events: Abdominal pain,[2]; 1.0 mg b.i.d.,4.2%
same,Adverse events: Constipation,[2]; 1.0 mg b.i.d.,7.6%
same,Adverse events: Diarrhea,[2]; 1.0 mg b.i.d.,11.1%
same,Adverse events: Dizziness,[2]; 1.0 mg b.i.d.,2.1%
same,Adverse events: Headache,[2]; 1.0 mg b.i.d.,5.6%
same,Adverse events: Nausea,[2]; 1.0 mg b.i.d.,2.8%
same,Adverse events: Sinusitis,[2]; 1.0 mg b.i.d.,6.3%
same,serious clinical or laboratory adverse events related to the treatment,"[2]; 0.15, 0.5 or 1.0 mg b.i.d., 12 weeks",No serious clinical or laboratory adverse events
same,pain scores,[2]; IBS-A subjects at these dosages,No statistically significant improvement
same,percent months with adequate relief of IBS pain or discomfort,"[2]; IBS-A, moderate or severe pain, 1.0 mg b.i.d., placebo 27%, p=0.022",50%
same,proportion of months with adequate relief of overall IBS symptoms,"[2]; IBS-A, moderate or severe pain, 1.0 mg b.i.d., placebo 30%, p=0.032",57%
same,percentage of monthly responders (adequate relief of pain or discomfort),"[2]; IBS-A, 1.0 mg b.i.d., first month, placebo 19%, p=0.017",46%
same,abdominal pain or discomfort associated with IBS,[2]; IBS-C subjects with moderate or severe pain,no statistically significant improvement
same,stool consistency,"[2]; IBS-D and IBS-C subjects, any of the three dosages",no statistically significant changes
same,bloating,"[2]; IBS-D, baseline pain scores ≧2.0, 1.0 mg, second month",statistically significant reductions
same,percent months with adequate relief of IBS pain or discomfort,"[2]; IBS-D, moderate or severe pain, 0.5 mg b.i.d., placebo 20%, p=0.011",47%
same,proportion of months with adequate relief of overall IBS symptoms,"[2]; IBS-D, moderate or severe pain, 0.5 mg b.i.d., placebo 23%, p=0.038",47%
same,urgency,"[2]; IBS-D, moderate or severe pain, 0.5 mg",statistically significant reductions
same,daily stool frequency,"[2]; IBS-D, moderate or severe pain, 0.5 mg, from week 3 to end of treatment",dramatic decrease
same,bloating,"[2]; IBS-D, moderate or severe pain, 0.5 mg, second and third months",Significant reductions
same,proportion of months with adequate relief of overall IBS symptoms,"[2]; IBS-D, moderate or severe pain, 1.0 mg b.i.d., placebo 23%, p=0.039",43%
same,urgency,"[2]; IBS-D, moderate or severe pain, 1.0 mg",statistically significant reductions
same,improvement in the percentage of pain-free days over placebo,"[2]; IBS-D, pain scores ≧2.0, 0.5 mg b.i.d., weeks 1-12",~30%
same,results in female versus male IBS-D subjects (adequate relief),"[2]; IBS-D, 0.5 mg",highly similar results
same,percentage of monthly responders (adequate relief of pain or discomfort),"[2]; IBS-D, 0.5 mg b.i.d., month 1, placebo 20%, p=0.045",48%
same,percentage of monthly responders (adequate relief of pain or discomfort),"[2]; IBS-D, 0.5 mg b.i.d., month 2, placebo 18%, p=0.010",52%
same,percentage of monthly responders (adequate relief of pain or discomfort),"[2]; IBS-D, 0.5 mg b.i.d., month 3, placebo 27%, p=0.010",50%
same,pain scores,"[2]; IBS-D, 0.5 mg, every week starting at week 3 and every month",statistically significant improvement
same,more pain free days compared to placebo,"[2]; IBS-D, 0.5 mg, over the 3 month study",21 days
same,pain scores,"[2]; IBS-D, 1.0 mg, every month and six of the twelve weeks",statistically significant improvement
same,improvement over placebo in percent number of months with adequate relief,[2]; 0.5 mg b.i.d.,17%
same,percent number of months with adequate relief of IBS pain or discomfort,"[2]; 0.5 mg b.i.d., placebo 23%, p=0.006",40%
same,improvement over placebo in percent number of months with adequate relief,[2]; 1.0 mg b.i.d.,17%
same,percent number of months with adequate relief of IBS pain or discomfort,"[2]; 1.0 mg b.i.d., placebo 23%, p=0.005",40%
same,tolerability,"[2]; fixed dose, 12 weeks",well tolerated
same,sensation responses to gastric and colon distention,[3],reduce sensation responses
same,solubility in ethanol,[4]; ethanol,5400 µg/mL
same,solubility in water,[4]; water,11600 µg/mL
same,bioavailability,[5]; fasting subjects,50%
same,effect of eating on bioavailability,[5]; food interaction studies,eating does not substantially impact bioavailability
same,half-life,[5]; in vivo,2 to 3 h
same,penetration of the blood-brain barrier,[5]; in vivo,poor penetration of the blood-brain barrier
same,Proportion of days with adequate relief of symptoms (mean ± SE),patients with IBS; IBS-A,0.46 ± 0.08
same,"change in bowel movements per day, corrected for placebo change from baseline",patients with IBS; IBS-A,increase
same,delta pain intensity scores relative to placebo,"patients with IBS; IBS-A (alternators), p=0.003",significantly better than placebo
same,Δ Pain intensity (mean ± SE),"patients with IBS; IBS-A, unadjusted p = 0.003 vs placebo",37.8 ± 3.7 mm
same,"Δ mean # stools, treatment compared to baseline","patients with IBS; IBS-A, on-demand, 4 weeks",0.0 ± 0.1
same,"Δ mean ease of passage, treatment compared to baseline","patients with IBS; IBS-A, on-demand, 4 weeks",0.0 ± 0.1
same,"Δ mean stool form, treatment compared to baseline","patients with IBS; IBS-A, on-demand, 4 weeks",0.2 ± 0.2
same,Proportion of days with adequate relief of symptoms (mean ± SE),patients with IBS; IBS-C,0.11 ± 0.07
same,"change in bowel movements per day, corrected for placebo change from baseline",patients with IBS; IBS-C,increase
same,Δ Pain intensity (mean ± SE),patients with IBS; IBS-C,23.8 ± 4.0 mm
same,"Δ mean ease of passage, treatment compared to baseline","patients with IBS; IBS-C, on-demand, 4 weeks",−0.1 ± 0.1
same,"Δ mean stool form, treatment compared to baseline","patients with IBS; IBS-C, on-demand, 4 weeks",0.0 ± 0.2
same,Proportion of days with adequate relief of symptoms (mean ± SE),patients with IBS; IBS-D,0.45 ± 0.08
same,"change in bowel movements per day, corrected for placebo change from baseline",patients with IBS; IBS-D,decrease
same,Δ Pain intensity (mean ± SE),patients with IBS; IBS-D,25.0 ± 2.9 mm
same,"Δ mean # stools, treatment compared to baseline","patients with IBS; IBS-D, on-demand, 4 weeks",−0.3 ± 0.1
same,"Δ mean ease of passage, treatment compared to baseline","patients with IBS; IBS-D, on-demand, 4 weeks",−0.1 ± 0.1
same,"Δ mean stool form, treatment compared to baseline","patients with IBS; IBS-D, on-demand, 4 weeks",−0.1 ± 0.2
same,Adverse events: Body as a whole,"patients with IBS; on-demand, 4 weeks",15.00%
same,Adverse events: Central and peripheral nervous system,"patients with IBS; on-demand, 4 weeks",48.33%
same,Adverse events: Gastrointestinal,"patients with IBS; on-demand, 4 weeks",16.67%
same,Adverse events: Genitourinary,"patients with IBS; on-demand, 4 weeks",1.67%
same,Adverse events: Musculoskeletal,"patients with IBS; on-demand, 4 weeks",6.67%
same,Adverse events: Psychiatric,"patients with IBS; on-demand, 4 weeks",15.00%
same,Adverse events: Respiratory,"patients with IBS; on-demand, 4 weeks",33.33%
same,serious clinical or laboratory adverse events,"patients with IBS; on-demand, 4 weeks",no serious clinical or laboratory adverse events
same,tolerability,"patients with IBS; on-demand, 4 weeks",well tolerated
same,"ratio of IC50 values, mu relative to kappa (kappa = 1)",mu opiate receptor,~501
same,"ratio of IC50 values, delta relative to kappa (kappa = 1)",delta opiate receptor,~498
same,IC50,kappa-opiate receptor,1.2 nM
Cc1[nH]cnc1CN1CCc2c(c3ccccc3n2C)C1=O [LOTRONEX],improvement in the percentage of pain-free days,IBS patients,10%

# — patent US8877800B2, “Kappa-opiate agonists for the treatment of diarrhea-predominant irritable bowel syndrome” (Tioga Pharmaceuticals, Inc., priority 2007, dated 2014)
